From patent US7101878B1 (Agouron Pharmaceuticals, Inc., priority 1998, dated 2006)
Read-outs that look alike come from different tables or passages of the source.

Assays:
human GnRH receptor = molecular target: T1, human GnRH receptor (Homo sapiens, UniProt P30968); assay: Radioligand binding, 125I-GnRH-A displacement, membranes of HEK 293 cells with human GnRH receptor
T1 construct: expressed in transfected cells; host or cells: HEK 293 (hGnRH-R/293, from Dr. Stuart Sealfon)
T1 sequence (P30968 1-328): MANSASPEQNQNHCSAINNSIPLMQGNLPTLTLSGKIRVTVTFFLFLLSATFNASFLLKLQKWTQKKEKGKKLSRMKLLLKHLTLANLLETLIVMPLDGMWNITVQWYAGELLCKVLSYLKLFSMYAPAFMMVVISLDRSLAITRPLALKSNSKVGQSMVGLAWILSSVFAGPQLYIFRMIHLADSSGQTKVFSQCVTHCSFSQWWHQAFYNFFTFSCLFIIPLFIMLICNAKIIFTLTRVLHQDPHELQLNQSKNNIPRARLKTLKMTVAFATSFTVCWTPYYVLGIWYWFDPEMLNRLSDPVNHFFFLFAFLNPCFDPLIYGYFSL
Summary of the method: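 After filtration and PBS washes, bound radioactivity was counted by scintillation and IC50 derived. Identical conditions applied for non-human receptors.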

bovine GnRH receptor = molecular target: T2, bovine GnRH receptor (Bos taurus, UniProt P32236); assay: Radioligand binding, 125I-GnRH-A, bovine pituitary membranes
T2 construct: membranes were prepared from bovine pituitary; from tissue; host or cells: bovine pituitary
T2 sequence (P32236 1-328): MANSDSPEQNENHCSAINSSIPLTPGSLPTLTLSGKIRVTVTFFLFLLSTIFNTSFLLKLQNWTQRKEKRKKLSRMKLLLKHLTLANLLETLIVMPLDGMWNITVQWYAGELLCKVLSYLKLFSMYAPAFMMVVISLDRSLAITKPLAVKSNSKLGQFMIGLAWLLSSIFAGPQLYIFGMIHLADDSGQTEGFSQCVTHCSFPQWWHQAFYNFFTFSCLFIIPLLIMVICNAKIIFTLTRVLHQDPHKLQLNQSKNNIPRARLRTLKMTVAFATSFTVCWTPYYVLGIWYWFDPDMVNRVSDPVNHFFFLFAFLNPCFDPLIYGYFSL
Summary of the method: (§1)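 Bound label captured on 0.1% polyethyleneimine-treated GF/C filters, washed three times with PBS, counted. IC50 derived; identical set-up for every species.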

mouse GnRH receptor = molecular target: T3, mouse GnRH receptor (Mus musculus, UniProt Q01776); assay: Radioligand binding, 125I-GnRH-A, 293 cells expressing mouse GnRH receptors
T3 construct: expressed in transfected cells; host or cells: 293 cells
T3 sequence (Q01776 1-327): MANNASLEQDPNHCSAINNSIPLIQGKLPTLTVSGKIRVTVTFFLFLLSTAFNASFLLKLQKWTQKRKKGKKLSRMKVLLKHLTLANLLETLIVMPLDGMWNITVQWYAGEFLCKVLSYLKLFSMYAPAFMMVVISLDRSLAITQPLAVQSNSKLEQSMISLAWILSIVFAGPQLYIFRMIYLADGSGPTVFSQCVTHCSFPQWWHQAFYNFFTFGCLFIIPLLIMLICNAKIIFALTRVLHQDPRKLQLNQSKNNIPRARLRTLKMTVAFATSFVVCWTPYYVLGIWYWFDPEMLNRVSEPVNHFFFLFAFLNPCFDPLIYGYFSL
Summary of the method: as §1

hGnRH receptor = molecular target: T4, hGnRH receptor (Homo sapiens, UniProt P30968); assay: Total inositol phosphates measurement, 293 cells containing the hGnRH receptor; assay type: cell-based; conditions: for GnRH functional: no species or readout annotated
T4 construct: expressed in transfected cells; host or cells: HEK 293 (hGnRH-R/293, from Dr. Stuart Sealfon)
T4 sequence (P30968 1-328): T1 sequence (P30968 1-328)
Protocol: To assess the activity of the compounds as agonists or antagonists, an assay measuring accumulation of total inositol phosphates was employed. 293 cells containing the hGnRH receptor were plated onto 24-well plates (approximately 200,000 cells/well) using DMEM media. […] The medium was aspirated and the cells rinsed with serum-free DMEM. The medium was aspirated and the cells were then treated with test compounds or vehicle for 30 minutes at 37° C. […] The media was replaced with ice-cold 10 mM formic acid, which stopped the reaction and also served to extract cellular lipids. Inositol phosphates were separated by ion-exchange chromatography on Dowex columns, which were washed with 2.5 mL of 10 mM myoinositol and 10 mM formic acid. The columns were then washed with 5 mL of 60 mM sodium formate and […], and total inositol phosphates were eluted with 5 mL 1M ammonium formate, 0.1 M formic acid. The column eluates were added to liquid scintillation vials containing 15 ml of scintillation cocktail and were counted by liquid scintillation counting.
(§2) This cell line was provided by Dr. Stuart Sealfon, Mount Sinai Medical School New York, N.Y. These cells were grown in DMEM supplemented with 0.2 g/L G418 100 U/ml penicillin/streptomycin and 10% FBS. Both GGH3 and hGnRH-R/293 cells were utilized for both for both total inositol phosphate measurement and for microphysiometry assessment of compound efficacy.

[1] = Pharmacokinetic studies / bioavailability in rats; assay type: in vivo, rat; conditions: for half-life / Cmax / Tmax: rat, plasma; for Cmax / Tmax: po
[2] = Metabolism rate, pmol/min/mg at 1 μM, human; assay type: in vitro ADME; conditions: 1 μM compound
[3] = Metabolism rate, pmol/min/mg at 1 μM, rat male; assay type: in vitro ADME; conditions: 1 μM compound
rat GnRH receptor [4] = molecular target: T5, rat GnRH receptor (Rattus norvegicus, UniProt P30969); assay: Radioligand binding, 125I-GnRH-A, rat pituitary membranes; set-up: membranes were prepared from rat pituitary; from tissue; host or cells: rat pituitary
T5 sequence (P30969 1-327): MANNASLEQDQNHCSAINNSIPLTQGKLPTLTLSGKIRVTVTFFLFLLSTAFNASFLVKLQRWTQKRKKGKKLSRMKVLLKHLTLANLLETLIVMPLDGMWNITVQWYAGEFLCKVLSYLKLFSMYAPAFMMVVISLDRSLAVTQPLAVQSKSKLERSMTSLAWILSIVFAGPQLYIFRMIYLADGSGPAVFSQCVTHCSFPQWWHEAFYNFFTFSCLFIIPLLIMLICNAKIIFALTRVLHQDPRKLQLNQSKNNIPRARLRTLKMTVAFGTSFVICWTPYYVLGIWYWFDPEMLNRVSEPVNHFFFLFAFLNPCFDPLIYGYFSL
Summary of the method: as §1

[5] = Metabolism rate, pmol/min/mg at 1 μM, rat female; assay type: in vitro ADME; conditions: 1 μM compound
[6] = Metabolism rate, pmol/min/mg at 1 μM, dog; assay type: in vitro ADME; conditions: 1 μM compound
[7] = Metabolism rate, pmol/min/mg at 1 μM, monkey; assay type: in vitro ADME; conditions: 1 μM compound
rat GnRH receptor [8] = molecular target: T5, rat GnRH receptor; assay: Microphysiometry, extracellular acidification rate, GGH3 cells; assay type: cell-based; conditions: agonist alone
Protocol: These cells have been extensively characterized previously (Kaiser et al., 1997). These cells were grown in low glucose Dulbecco's modified Eagle's medium (DMEM) containing: 100U/mL penicillin/streptomycin, 0.6 g/L G418 and 10% beat-inactivated fetal bovine serum
as §2
The Cytosensor®Microphysiometer (Molecular Devices, Sunnyvale, Calif.) is a real-time, noninvasive, nonradioactive semiconductor-based system for monitoring the cellular responses to various stimuli. It is based on a pH-sensitive silicon sensor, the light-addressable potentiometric sensor which forms part of a microvolume flow chamber in which cultured cells are immobilized (Pitchford et al., 1995; Parce et al., 1989; Owicki, et al. 1994).
GGH3 cells were seeded in low-buffered minimal essential media (MEM, Sigma) containing 25 mM NaCl and 0.1% BSA at a density of 500,000 cells/capsule onto the polycarbonate membrane (3 μm porosity) of cell capsule cups (Molecular Devices, Sunnyvale, Calif.). Capsule cups were transferred to sensor chambers where cells were held in close apposition to a silicon sensor within a sensor chamber, which measures small changes in pH in the microvolume of the sensor chamber. Low-buffered medium was pumped continuously across the cells at a rate of approximately 100 μl/min from one of two fluid reservoirs. A selection valve determined which reservoir from which fluid was perifused onto the cells.
The Cytosensor®Microphysiometer generates a voltage signal, which is a linear function of pH, every second. In order to measure acidification rates, flow to the sensor chamber containing the cells was periodically interrupted, allowing for excreted acidic metabolites to build up in the extracellular fluid of the cells. In these experiments, cells were maintained at 37° C. on a two minute flow cycle with cells being perfused with media for 80 seconds followed by 40 seconds in which the flow of media was stopped. During this 40 second interval, acidification rates were measured for a 30 sec interval. In this fashion, a single acidification rate was calculated every two min. The Cytosensor®Microphysiometer device contains eight such sensor units, allowing for eight simultaneous experiments to be performed. Each unit was individually programmed utilizing a computer linked to the system.
GGH3 cells were initially equilibrated in the low-buffered MEM media for a period of 30-60 min in which basal acidification rates (measured as μV/sec), in the absence of any stimuli, were monitored. When the basal rate of acidification changed by less than ten percent over a period of twenty minutes, experiments were initiated. Time course experiments were performed to determine the optimal time for agonist exposure prior to acidification rate measurement and the duration of exposure needed to obtain peak acidification responses to various agonists. From these time course experiments, it was determined that cells should be exposed to GnRH peptide agonists at least one minute prior to collection of acidification rate data. Peak acidification rates usually occurred in the first two-minute exposure cycle. In order to capture the peak response to GnRH, cells were exposed to the agonist for a total of four minutes. […] All compounds were tested in a final concentration of 1% DMSO in low-buffered MEM media described above.

5-HT7 = 5-HT7 (Homo sapiens, UniProt P34969); assay: Selectivity: 5-HT7
Chain of 5-HT7 (P34969 whole entry, species assumed): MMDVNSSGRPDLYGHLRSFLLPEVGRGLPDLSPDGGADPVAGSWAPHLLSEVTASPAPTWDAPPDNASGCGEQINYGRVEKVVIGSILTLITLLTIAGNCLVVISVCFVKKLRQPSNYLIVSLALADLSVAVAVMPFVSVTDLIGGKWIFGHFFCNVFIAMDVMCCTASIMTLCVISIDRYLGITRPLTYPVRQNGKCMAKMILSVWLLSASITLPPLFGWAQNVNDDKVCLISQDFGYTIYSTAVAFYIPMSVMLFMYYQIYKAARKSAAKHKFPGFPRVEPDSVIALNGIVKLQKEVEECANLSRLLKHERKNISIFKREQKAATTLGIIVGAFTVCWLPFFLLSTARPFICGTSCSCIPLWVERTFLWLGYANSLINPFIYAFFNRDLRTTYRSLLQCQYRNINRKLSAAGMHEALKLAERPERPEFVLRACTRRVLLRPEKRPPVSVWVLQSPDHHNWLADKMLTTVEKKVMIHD

D2 Dopamine = D2 Dopamine (Homo sapiens, UniProt P14416); assay: Selectivity: D2 Dopamine
Chain of D2 Dopamine (P14416 whole entry): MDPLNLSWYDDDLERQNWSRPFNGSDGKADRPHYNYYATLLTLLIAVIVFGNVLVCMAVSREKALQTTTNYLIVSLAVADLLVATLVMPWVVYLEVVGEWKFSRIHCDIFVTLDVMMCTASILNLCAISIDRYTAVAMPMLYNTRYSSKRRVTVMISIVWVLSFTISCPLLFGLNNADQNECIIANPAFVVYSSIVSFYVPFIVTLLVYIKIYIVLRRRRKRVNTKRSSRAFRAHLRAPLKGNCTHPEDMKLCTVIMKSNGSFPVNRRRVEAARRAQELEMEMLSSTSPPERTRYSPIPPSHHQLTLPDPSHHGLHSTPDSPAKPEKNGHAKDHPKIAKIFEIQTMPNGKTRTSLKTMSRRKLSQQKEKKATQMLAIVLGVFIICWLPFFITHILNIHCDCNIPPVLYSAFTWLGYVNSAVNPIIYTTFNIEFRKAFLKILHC

[9] = second value marked * (mostly in parentheses), asterisk not explained, read-out: hGnRH IC50, value marked *
[10] = male, 20 mg/kg, rat male, p.o. 20 mg/kg, vehicle per footnote (DMSO/cremophor/saline)
[11] = means ± SE of at least three experiments performed in duplicate, read-out: Bovine IC50
[12] = female, 10 mg/kg, rat female, p.o. 10 mg/kg, 5 mg/ml solution in 10% DMSO 10% cremophor 80% saline

Compound | IC50 (human GnRH receptor; read-out: hGnRH IC50) | IC50 (human GnRH receptor; [9]) | IC50 (bovine GnRH receptor; read-out: bGnRH IC50) | IC50 (mouse GnRH receptor; read-out: mGnRH IC50) | GnRH functional (hGnRH receptor) | half-life ([1]; male, iv, 10 mg/kg, rat male) | Human pmol/min/mg 1 μM [2] | Rat male pmol/min/mg 1 μM [3] | IC50 (rat GnRH receptor [4]; read-out: rGnRH IC50) | IC50 (bovine GnRH receptor; [11]) | further results
Cc1cc2c(cc1Cc1ccc(C(=O)NC[C@H]3CC[C@@H](CNC(=N)N)CC3)o1)C(C)(C)CCC2(C)C [Compound 23] | 220 nM | 40 nM | 2830 nM | 2100 nM | Antag- onist | 0.8 h | 263 pmol/min/mg | 141 pmol/min/mg | 730 nM | – | –
CC(C)C[C@H](NC(=O)CNC(=O)[C@H](Cc1ccc(O)cc1)NC(=O)[C@H](CO)NC(=O)[C@H](Cc1c[nH]c2ccccc12)NC(=O)[C@H](Cc1c[nH]cn1)NC(=O)[C@@H]1CCC(=O)N1)C(=O)N[C@@H](CCCNC(=N)N)C(=O)N1CCC[C@H]1C(=O)NCC(N)=O [GnRH, reference compound] | – | – | – | – | – | – | – | – | – | 13 ± 2 nM | IC50 (mouse GnRH receptor; Mouse IC50, means ± SE of at least three experiments performed in duplicate): 11 ± 2 nM; extracellular acidification rate of GGH3 cells (rat GnRH receptor [8]): dose-dependent increase in the extracellular acidification rate
Cc1cc2c(cc1Cc1ccc(C(=O)NCC3CCC(CNC(=N)N)CC3)o1)C(C)(C)CCC2(C)C (stereo not shown) [Compound 9] | 220 nM | 40 nM | – | 2300 nM | – | – | – | – | 680 nM | 3800 ± 220 nM | IC50 (human GnRH receptor; means ± SE of at least three experiments performed in duplicate, read-out: Human IC50): 220 ± 33 nM; IC50 (mouse GnRH receptor; means ± SE of at least three experiments performed in duplicate, read-out: Mouse IC50): 2300 ± 460 nM; Kb (hGnRH receptor): 30 nM; IC50 (rat GnRH receptor [4]; means ± SE of at least three experiments performed in duplicate, read-out: Rat IC50): 680 ± 120 nM

Continued, in another order:

IC50 (human GnRH receptor; read-out: hGnRH IC50) | IC50 (human GnRH receptor; [9]) | IC50 (bovine GnRH receptor; read-out: bGnRH IC50) | IC50 (mouse GnRH receptor; read-out: mGnRH IC50) | GnRH functional (hGnRH receptor) | half-life ([1]; male, iv, 10 mg/kg, rat male) | Human pmol/min/mg 1 μM [2] | Rat male pmol/min/mg 1 μM [3] | IC50 (rat GnRH receptor [4]; read-out: rGnRH IC50) | IC50 (bovine GnRH receptor; [11]) | Compound | further results
12 nM | – | – | 1.3 nM | – | 1.1 h | 248 pmol/min/mg | 1414 pmol/min/mg | 1.6 nM | – | Cc1cc2c(cc1Cc1ccc(C(=O)NCc3cccc(CNc4nccc(NC[C@@H]5CCCO5)n4)c3)o1)C(C)(C)CCC2(C)C [Compound 148] | Cmax [1, 10]: 30 nM; Tmax [1, 10]: 2 h; Fp.o. ([1]; rat male, p.o. 20 mg/kg, vehicle per footnote (DMSO/cremophor/saline)): 3% (20 mg/kg)^1; Rat female pmol/min/mg 1 μM [5]: 133 pmol/min/mg; Dog pmol/min/mg 1 μM [6]: 1960 pmol/min/mg; Monkey pmol/min/mg 1 μM [7]: 5019 pmol/min/mg
110 nM | – | – | 320 nM | – | – | 497 pmol/min/mg | 2521 pmol/min/mg | 530 nM | – | COc1cccc(OC)c1NC(=O)c1ccc(Cc2c(C)cc(C)c(Br)c2C)o1 [Compound 140] | Cmax [1, 12]: 440 nM; Tmax [1, 12]: 1 h; half-life ([1]; female, rat female): 4.6 h; Fp.o. ([1]; rat female, 5 mg/ml solution in 10% DMSO 10% cremophor 80% saline): 59% (10 mg/kg)^10; Ki (5-HT7): > 4400 nM; Ki (D2 Dopamine): 2300 nM
215 nM | – | 12500 nM | 3800 nM | Antag- onist | – | – | – | 2900 nM | – | Cc1cc2c(cc1Cc1ccc(C(=O)NCC3CCCCC3)o1)C(C)(C)CCC2(C)C [Compound 36] | –
